Source: the supplement of paper PMC10307832

Assays:
Experiment in all cases: relative viability (nuclei count vs DMSO), 5 days (fraction); higher = more cells survive
[1] = compound: C1=CC=C2C(=C1)C=CC(=C2SSC3=C(C=CC4=CC=CC=C43)O)O [IPA-3]
Procedure, shortened: (§1)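 Lung cancer cell lines in 1536-well plates were kept overnight at 37 °C, then pinned with five library-drug doses (not always all listed) spaced by √10 on vehicle-anchored plates. After 5 days without medium change, cells were fixed, permeabilised and Hoechst-stained in one step, imaged at 4×, and nuclei were counted with MetaXpress. Viability is treated-well nuclei divided by vehicle-well nuclei, taken as the median over plates. Plates passed only with control CV below 25% and at least one doubling.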

[2] = compound: Cn1c(Nc2ccc(C(F)(F)F)cc2)nc2cc(Oc3ccnc(-c4ncc(C(F)(F)F)[nH]4)c3)ccc21 [RAF265]
Procedure, shortened: as §1

[3] = compound: Cc1ccc(-n2nc(C(C)(C)C)cc2NC(=O)Nc2ccc(OCCN3CCOCC3)c3ccccc23)cc1 [Doramapimod]
Procedure, shortened: as §1

[4] = compound: C1=CC=C2C(=C1)C=CC(=C2SSC3=C(C=CC4=CC=CC=C43)O)O [IPA-3] + Cc1nc(NC(=O)N2CCC[C@H]2C(N)=O)sc1-c1ccnc(C(C)(C)C(F)(F)F)c1 [Alpelisib] (partner 2 µM)
Procedure, shortened: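 Medians of duplicate plates are given as relative viability. That measure is the nuclei count in treated wells divided by the count in vehicle wells. Counts were taken on 4× images of lung cancer cell lines in 1536-well plates, 5 days after pin-tool dosing the day after seeding with one drug alone or a fixed anchor-drug dose plus five library-drug doses (not always all listed) in √10 steps.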

Cell Line	relative viability ([1]; 0.2 µM)	relative viability ([1]; 0.6325 µM)	relative viability ([1]; 2 µM)	relative viability ([1]; 6.325 µM)	relative viability ([1]; 20 µM)	relative viability ([2]; 0.01 µM)	relative viability ([2]; 0.03162 µM)	relative viability ([2]; 0.1 µM)	relative viability ([2]; 0.3162 µM)	relative viability ([2]; 1 µM)	relative viability ([3]; 0.02 µM)	relative viability ([3]; 0.06325 µM)	relative viability ([3]; 0.2 µM)	relative viability ([3]; 0.6325 µM)	relative viability ([3]; 2 µM)	relative viability ([4]; first compound 0.2 µM)	relative viability ([4]; first compound 0.6325 µM)	relative viability ([4]; first compound 2 µM)	relative viability ([4]; first compound 6.325 µM)	relative viability ([4]; first compound 20 µM)
NCI-H1993	0.981	0.99	0.873	0.97	1.01	1.04	0.94	1	0.799	0.794	1.06	0.941	0.852	1.14	0.864	0.742	0.6	0.616	0.66	0.594
NCI-H23	1.08	0.944	0.895	0.917	0.923	0.966	0.847	0.906	0.416	0.41	0.966	1.04	1.06	0.864	0.946	0.694	0.577	0.73	0.645	0.805
NCI-H1437	1.13	1.01	0.994	1.04	1.08	1.02	0.99	1.01	1.03	0.954	1.05	1.05	0.985	1.07	0.948	1.32	0.938	1.11	0.974	1.27
SK-MES-1	1.08	0.97	1.07	0.923	1.02	1.03	0.805	0.634	0.441	0.283	1.01	0.934	0.95	1.05	0.926	1.17	0.88	0.868		0.951
NCI-H2405	1.06	0.994	1.03	1.02	1.06	1.04	0.976	1	0.871	0.597	1.02	1.03	0.973	1.07	0.914	0.815	0.771	0.753	0.853	0.829
NCI-H2023	1.37	0.899	1.02	1.1	1.06	0.988	0.988	1.13	0.762	0.808	0.928	0.975	0.998	1.19	0.906	0.737	0.636	0.575	0.628	0.768
NCI-H838	1.08	0.942	0.972	0.969	1.1	0.981	1	0.973	0.93	0.773	0.993	1.02	1.06	1.05	0.949	1.25	0.948	1.05	1.06	1.16
NCI-H1299	1.1	0.995	1.02	0.94	0.98	1.08	0.97	0.961	0.793	0.616	1.04	1.02	1.02	1.05	0.967	1.07	1.07	1.02	1.07	1.06
